The target in assay [1] is T1, D(4) dopamine receptor (Rattus norvegicus, UniProt P30729).
T1 sequence (P30729 whole entry): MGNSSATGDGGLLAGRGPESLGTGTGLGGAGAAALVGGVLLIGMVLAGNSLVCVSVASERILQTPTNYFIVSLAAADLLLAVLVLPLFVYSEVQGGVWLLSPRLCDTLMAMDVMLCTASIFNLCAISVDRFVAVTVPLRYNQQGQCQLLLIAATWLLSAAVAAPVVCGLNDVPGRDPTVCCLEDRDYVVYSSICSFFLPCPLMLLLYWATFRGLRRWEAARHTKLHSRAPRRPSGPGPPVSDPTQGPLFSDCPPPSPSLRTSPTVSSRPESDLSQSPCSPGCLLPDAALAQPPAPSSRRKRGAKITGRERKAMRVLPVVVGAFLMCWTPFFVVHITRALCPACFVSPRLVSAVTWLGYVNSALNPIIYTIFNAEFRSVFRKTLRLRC

For assay [2], the target named is D(3) dopamine receptor (Rattus norvegicus, UniProt P19020).
Assay [3] concerns the target D(1A) dopamine receptor (Rattus norvegicus, UniProt P18901).
The target of assay [4] is D(2) dopamine receptor (Rattus norvegicus, UniProt P61169).

Molecules are shown by their SMILES. pKi: −log10 of the molar value. “And” between values parts separate entries of the source, which are not always exact repeats. Identical values can stand only once. Counter-ions that a name gives are not always drawn.

D(2) dopamine receptor, sequence (P61169 whole entry): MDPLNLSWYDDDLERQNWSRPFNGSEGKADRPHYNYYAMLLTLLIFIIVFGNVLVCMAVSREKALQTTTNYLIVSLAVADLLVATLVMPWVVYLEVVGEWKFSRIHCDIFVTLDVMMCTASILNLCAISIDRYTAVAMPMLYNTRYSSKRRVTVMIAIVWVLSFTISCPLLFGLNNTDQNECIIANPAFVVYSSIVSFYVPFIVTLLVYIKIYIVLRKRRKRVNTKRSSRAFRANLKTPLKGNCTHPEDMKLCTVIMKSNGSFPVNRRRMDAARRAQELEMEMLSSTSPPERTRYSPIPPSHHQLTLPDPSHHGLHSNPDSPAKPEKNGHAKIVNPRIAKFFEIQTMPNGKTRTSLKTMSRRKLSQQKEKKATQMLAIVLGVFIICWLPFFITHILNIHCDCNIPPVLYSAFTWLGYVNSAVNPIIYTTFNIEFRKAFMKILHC
D(1A) dopamine receptor, sequence (P18901 whole entry): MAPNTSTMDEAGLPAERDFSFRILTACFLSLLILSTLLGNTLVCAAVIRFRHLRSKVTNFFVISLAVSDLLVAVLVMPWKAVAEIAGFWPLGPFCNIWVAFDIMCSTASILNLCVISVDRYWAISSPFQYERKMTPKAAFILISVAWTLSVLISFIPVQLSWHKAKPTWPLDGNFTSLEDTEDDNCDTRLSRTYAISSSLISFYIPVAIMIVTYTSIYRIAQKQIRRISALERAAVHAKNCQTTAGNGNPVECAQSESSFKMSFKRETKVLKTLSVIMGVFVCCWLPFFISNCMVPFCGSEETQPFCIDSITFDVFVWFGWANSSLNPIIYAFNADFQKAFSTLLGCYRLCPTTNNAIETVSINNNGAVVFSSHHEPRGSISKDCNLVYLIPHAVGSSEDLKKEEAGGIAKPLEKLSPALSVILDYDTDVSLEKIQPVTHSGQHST
D(3) dopamine receptor, sequence (P19020 whole entry): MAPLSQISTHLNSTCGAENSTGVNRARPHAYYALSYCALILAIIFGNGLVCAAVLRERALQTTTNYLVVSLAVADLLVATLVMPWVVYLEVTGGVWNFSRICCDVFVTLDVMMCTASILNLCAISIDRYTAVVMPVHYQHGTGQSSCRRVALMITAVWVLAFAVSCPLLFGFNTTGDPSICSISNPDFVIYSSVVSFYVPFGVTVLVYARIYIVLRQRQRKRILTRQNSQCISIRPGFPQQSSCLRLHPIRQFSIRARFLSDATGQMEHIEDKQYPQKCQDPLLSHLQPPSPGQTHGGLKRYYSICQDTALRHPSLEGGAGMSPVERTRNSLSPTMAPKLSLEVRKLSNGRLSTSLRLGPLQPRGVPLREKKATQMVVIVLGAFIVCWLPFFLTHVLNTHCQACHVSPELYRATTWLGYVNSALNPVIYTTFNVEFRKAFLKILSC

The term pKi denotes the negative decadic logarithm of the Ki, by convention in mol/L. For `Oc1ccc2c(c1O)Cc1cccc3c1[C@H]2CNC3` [Dinapsoline, (R)(+)], the pKi in assay [1] was 7.22.

Consider `CCCN1Cc2c(C)cccc2[C@H]2c3cc(O)c(O)cc3CC[C@@H]21` [Dihydrexidine, 4-methyl-N-propyl], for which the figures for the pKi in assay [2] and in assay [3] were 8.68 and 7.63, respectively.

Consider `Cc1ccc2c3c1CNC[C@H]3c1ccc(O)c(O)c1C2` (racemic) [Dinapsoline,(+/-)-4-Methyl], for which the pKi in assay [4] was 7.44 and 7.72; in assay [2], 7.74; in assay [1] it was 7.08.

For `CCCN1Cc2ccccc2[C@H]2c3cc(O)c(O)cc3CC[C@@H]21` [Dihydrexidine, N-propyl], the pKi was 8.06 in assay [2] and 6.74 in assay [3].

For the compound `CCCN1Cc2c(C)ccc3c2[C@@H](C1)c1ccc(O)c(O)c1C3` (racemic) [Dinapsoline,(+/-)-4-Methyl-N-propyl], the pKi was 7.64 and 7.68 in assay [4]; 8.60 in assay [2]; 6.70 and 5.85 in assay [3]; 7.55 in assay [1].

Take `C=CCN1Cc2c(C)ccc3c2[C@@H](C1)c1ccc(O)c(O)c1C3` (racemic) [Dinapsoline,(+/-)-4-Methyl-N-allyl]: the pKi in assay [4] was 7.44 and 7.31; in assay [2], 8.37; in assay [3], 7.25 and 6.85; in assay [1], 7.20.

In the case of `Cc1ccc2c3c1Cc1c(ccc(O)c1O)[C@@H]3CNC2` (racemic) [Dinapsoline,(+/-)-6-Methyl], the pKi is 6.72 and 7.24 in assay [4]; 7.55 in assay [2]; 6.66 in assay [1].

With `CCCN1Cc2cccc3c2[C@@H](C1)c1ccc(O)c(O)c1C3` (racemic) [(+/-)-2-propyldinapsoline hydrobromide], the pKi was 7.41 and 7.22 in assay [4]; 8.55 in assay [2]; 6.77 and 5.92 and 6.18 in assay [3]; 7.77 in assay [1].

In the case of `C=CCN1Cc2cccc3c2[C@@H](C1)c1ccc(O)c(O)c1C3` (racemic) [Dinapsoline,(+/-)-N-allyl], the pKi in assay [2] was 7.85; in assay [1], 7.32.

`Cc1cccc2c1CN[C@H]1CCc3cc(O)c(O)cc3[C@H]21` [Dihydrexidine, 4-methyl]: the pKi in assay [4] was 6.17; in assay [2], 7.07; in assay [3] it was 8.18 and 7.74.

For the origin of these results see BindingDB's records for doi:10.1016/S0968-0896(02)00561-8 (Purdue University, 2003).
